Source: publication PMC7830917, “PEG-BHD1028 Peptide Regulates Insulin Resistance and Fatty Acid β-Oxidation, and Mitochondrial Biogenesis by Binding to Two Heterogeneous Binding Sites of Adiponectin Receptors, AdipoR1 and AdipoR2” (International Journal of Molecular Sciences, 2021)

What was measured:
[1] = tested on: insulin-resistant C2C12 myotubes; experiment: 2-Deoxy-D-glucose uptake, insulin-resistant C2C12 myotubes; format: cell-based, mouse; conditions: 0.6 mM palmitate; 100 nM insulin
Experimental: (§1) Skeletal muscle is the primary site of glucose metabolism, accounting for approximately […] of the entire body’s glucose uptake in the presence of insulin [22]. […] The effect of PEG-BHD1028 on glucose uptake in insulin-resistant C2C12 skeletal muscle cells was evaluated. To induce insulin resistance, differentiated C2C12 myotubes were treated with 0.6 mM palmitate and incubated for 16 h and then treated with 100 nM insulin and PEG-BHD1028 at concentrations of 100 and 500 nM for 30 min.
(§2) The 2-DG uptake of C2C12 cells was measured using the Glucose Uptake Assay Kit (Colorimetric, Ab136955, Abcam, Cambridge, UK) according to the manufacturer’s instruction. Palmitate to induce insulin resistance was prepared with minor modifications from the previous description. Briefly, palmitate was dissolved in 0.1 M NaOH to a concentration of 20 mM by heating at 75 °C and the dissolved solution was then diluted with 5% fatty acid-free bovine serum at a stock solution of 6 mM at 55 °C. Cells were treated with 0.6 mM palmitate overnight. The fixed cells were washed three times with DPBS, followed by incubation in Krebs-Ringer-Phosphate-Hepes (KRPH) buffer containing 2% fatty acid free-BSA for 40 min. […] Absorbance was measured using an Epoch microplate reader (BioTek Instruments, Inc., Winooski, VT, USA) at 412 nm.

[2] = tested on: C2C12 myotubes; experiment: 2-Deoxy-D-glucose uptake, non-resistant C2C12 myotubes; format: cell-based, mouse; conditions: 100 nM insulin
Experimental: as §1, §2

[3] = tested on: diabetic swine; conditions: cited from earlier work
Description: It has also been well accepted that adiponectin alleviates insulin resistance, and adiponectin deficiency leads to abnormal glucose metabolism. Thus, insulin resistance has been recognized as the most fundamental root cause of type 2 diabetes mellitus, and the concentration of circulating adiponectin is negatively correlated with insulin resistance. […] Recent studies also have shown that p38 MAPK acts as an essential mediator in regulating adiponectin-induced ...

[4] = via AMPK, after binding to AdipoR1 and AdipoR2 in the hypothalamus; cited from earlier work
Description: Besides the effect on the amelioration of insulin resistance, it has been widely known that adiponectin induces weight loss through fatty acid oxidation and energy expenditure. At the molecular level, adiponectin activates 5’ AMP-activated protein kinase (AMPK) and peroxisome proliferator-activated receptor alpha (PPARα) signal pathways. AMPK pathway ultimately enhances mitochondrial biogenesis and fatty acid β-oxidation, and the activated PPARα promotes uptake, utilization, and catabolism of fatty acids by upregulating the genes involved in fatty acid transport, fatty acid-binding ...

Row | Molecule | glucose uptake, insulin-resistant cells, insulin alone [1] | glucose uptake, non-resistant cells, insulin alone [2] | glucose metabolism / insulin sensitivity [3] | appetite [4]
1 | insulin: insulin | not observed | significantly increased |  | 
2 | adiponectin: hormone, endogenous ligand of AdipoR1 and AdipoR2 (protein, UniProt Q15848 19-244, looked up) Adiponectin: ETTTQGPGVLLPLPKGACTGWMAGIPGHPGHNGAPGRDGRDGTPGEKGEKGDPGLIGPKGDIGETGVPGAEGPRGFPGIQGRKGEPGEGAYVYRSAFSVGLETYVTIPNMPIRFTKIFYNQQNHYDGSTGKFHCNIPGLYYFAYHITVYMKDVKVSLFKKDKAMLFTYDQYQENNVDQASGSVLLHLEVGDQVWLQVYGEGERNGLYADNDNDSTFTGFLLYHDTN |  |  | enhanced glucose metabolism by improving insulin sensitivity | induced appetite
